Where no end group is shown, it is not given here. [ ]: non-standard residue; d: D form. Cit = NC(=O)NCCC[C@H](N)C(=O)O

Results on 17 substances are retold here after patent US8900880B2, “Viral citrullinated peptides and uses thereof” (Toscana Biomarkers S.R.L., priority 2009, dated 2014).

This experiment concerns IgG antibodies in RA and NHS sera. Put plainly: ELISA with differently citrullinated EBNA-2(338-358) peptides (Example 6). Format: binding, human. The settings on record: for NHS positive sera: 23 normal healthy subjects; for NHS positive sera / RA positive sera: positive = greater than 97.5th percentile of normal control group; for RA positive sera: 24 RA patients; for reactivity with RA sera (in words): 24 RA sera, relevant = more than 25% positive. From the text:
The role of the number and of the position of citrullines inside EBNA-2(338-358) sequence in the detection of specific antibodies in RA sera was investigated by means of differently citrullinated peptides (Table 1).
It is believed that these two positions relate to two different antigenic regions.

Turning to “GQSCitGQSCitGRGRGRGRGRGKG (GQS[Cit]GQS[Cit]GRGRGRGRGRGKG) [[Cit^341, Cit^345]EBNA2(338-358)]”, the NHS positive sera is on record as 0/23 and the RA positive sera is on record as 12/24.
Regarding “GQSCitGQSCitGRGCitGRGRGRGKG (GQS[Cit]GQS[Cit]GRG[Cit]GRGRGRGKG)”, the NHS positive sera is given as 1/23, the RA positive sera was 12/24 and the “reactivity with RA sera (in words)” value is “most active peptide in this series”.
With “GQSRGQSCitGRGRGCitGRGRGKG (GQSRGQS[Cit]GRGRG[Cit]GRGRGKG) [[Cit^345, Cit^351]EBNA2(338-358)]”, the NHS positive sera is recorded as 1/23 and the RA positive sera is 12/24.
As for “GQSRGQSCitGRGRGRGRGRGKG (GQSRGQS[Cit]GRGRGRGRGRGKG) [[Cit^345]EBNA2(338-358)]”, the NHS positive sera was 1/23 and the RA positive sera is listed as 9/24.
For “GQSRGQSRGRGRGRGCitGRGKG (GQSRGQSRGRGRGRG[Cit]GRGKG) [[Cit^353]EBNA2(338-358)]”, in that order: 0/23 and 6/24.
Take “GQSRGQSRGRGCitGCitGRGRGKG (GQSRGQSRGRG[Cit]G[Cit]GRGRGKG) [[Cit^349, Cit^351]EBNA2(338-358)]”: the NHS positive sera is 2/23, the RA positive sera is given as 15/24 and the “reactivity with RA sera (in words)” value is recorded as “very active”. In addition, the “specificity and selectivity (in words)” value (RA versus NHS sera) is “less specific and selective”.
As for “GQSRGQSCitGCitGRGRGRGRGKG (GQSRGQS[Cit]G[Cit]GRGRGRGRGKG) [[Cit^345, Cit^347]EBNA2(338-358)]”, the NHS positive sera is recorded as 1/23 and the RA positive sera was 10/24.
With “GQSRGQSRGRGRGCitGCitGRGKG (GQSRGQSRGRGRG[Cit]G[Cit]GRGKG; not fully specified) [[Cit^349, Cit^353]EBNA2(338-358)]”, the NHS positive sera was 0/23 and the RA positive sera is on record as 12/24.
As to “GQSRGQSCitGRGCitGRGRGRGKG (GQSRGQS[Cit]GRG[Cit]GRGRGRGKG) [[Cit^345, Cit^349]EBNA2(338-358)]”, the NHS positive sera was 0/23; the RA positive sera is 15/24; the “reactivity with RA sera (in words)” value was “most active and selective di-citrullinated peptide”.
On to “GQSRGQSCitGRGCitGRGCitGRGKG (GQSRGQS[Cit]GRG[Cit]GRG[Cit]GRGKG)”, for which the NHS positive sera is 1/23 and the RA positive sera is listed as 10/24.
“GQSRGQSCitGRGRGRGRGCitGKG (GQSRGQS[Cit]GRGRGRGRG[Cit]GKG) [[Cit^345, Cit^355]EBNA2(338-358)]”: the NHS positive sera was 0/23 and the RA positive sera was 11/24.
With “GQSRGQSRGCitGRGRGRGRGKG (GQSRGQSRG[Cit]GRGRGRGRGKG) [[Cit^347]EBNA2(338-358)]”, the NHS positive sera is recorded as 1/23 and the RA positive sera is 6/24.
Take “GQSRGQSRGRGCitGRGRGRGKG (GQSRGQSRGRG[Cit]GRGRGRGKG) [[Cit^349]EBNA2(338-358)]”: the NHS positive sera is given as 1/23 and the RA positive sera was 9/24.
For “GQSCitGQSRGRGRGRGRGCitGKG (GQS[Cit]GQSRGRGRGRGRG[Cit]GKG) [[Cit^341, Cit^355]EBNA2(338-358)]”, in that order: 1/23 and 8/24.
For “GQSRGQSCitGCitGCitGRGRGRGKG (GQSRGQS[Cit]G[Cit]G[Cit]GRGRGRGKG) [[Cit345, Cit^347, Cit^349]EBNA2(338-358)]”, in that order: 1/23 and 9/24.
For “GQSRGQSCitGRGCitGCitGRGRGKG (GQSRGQS[Cit]GRG[Cit]G[Cit]GRGRGKG)”, in that order: 1/23 and 8/24.
As for “GQSRGQSRGRGRGRGRGCitGKG (GQSRGQSRGRGRGRGRG[Cit]GKG) [[Cit^355]EBNA2(338-358)]”, the NHS positive sera is 2/23 and the RA positive sera is given as 3/24.
